Experimental findings from patent publication US10125100B2, “Kinase inhibitors” (Respivert Limited, priority 2014, dated 2018) are described below.

In one test the test system is mitosis in PBMCs. The test can be described thus: (g) Cell mitosis assay. Particulars: Homo sapiens, PBMC, 5 μg/mL. The test is classed as cell-based. The method, then: Peripheral blood mononucleocytes (PBMCs) from healthy subjects are separated from whole blood (Quintiles, London, UK) using a density gradient (Histopaque®-1077, Sigma-Aldrich, Poole, UK). The PBMCs (3 million cells per sample) are subsequently treated with 2% PHA (phytohaemagglutinin, Sigma-Aldrich, Poole, UK) for 48 hr, followed by a 20 hr exposure to varying concentrations of test compounds. At 2 hr before collection, PBMCs are treated with demecolcine (0.1 μg/mL; Invitrogen, Paisley, UK) to arrest cells in metaphase. To observe mitotic cells, PBMCs are permeabilized and fixed by adding Intraprep (50 μL; Beckman Coulter, France), and stained with anti-phospho-histone 3 ([…]; #9701; Cell Signalling, Danvers, Mass.) and propidium iodide (1 mg/mL; Sigma-Aldrich, Poole, UK) as previously described (Muehlbauer P. A. and Schuler M. J., Mutation Research, 2003, 537:117-130). Fluorescence is observed using an ATTUNE flow cytometer (Invitrogen, Paisley, UK), gating for lymphocytes.

For a further test, the target named is c-Src (Homo sapiens (Human), UniProt P12931). The test can be described thus: c-Src enzyme inhibition, Z-LYTE FRET. The test is classed as biochemical. An outline of the steps:
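Z-LYTE FRET peptide phosphorylation read as donor coumarin over acceptor fluorescein ratio after 1 hr protease development. Compounds (1–0.001 μg/mL) preincubated 2 hr at RT with enzyme; ATP solutions 60 μM for Syk, 800 μM for c-Src; kinase reaction 1 hr.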

In a further test the target is Syk (Homo sapiens (Human), UniProt P43405). Put plainly: Syk enzyme inhibition, Z-LYTE FRET. The class given is biochemical. An outline of the steps: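 Syk or c-Src enzyme (3000 or 2000 ng/mL solutions) was preincubated 2 h at RT with compound solutions at 1, 0.1, 0.01 or 0.001 µg/mL. Z-LYTE FRET peptide (8 µM solution) and ATP (800 µM solution for c-Src, 60 µM for Syk) were then added for 1 h, followed by protease development for 1 h. Phosphorylation was read as the coumarin/fluorescein emission ratio.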

The next test deals with p38 MAPKα (MAPK14) (Homo sapiens (Human), UniProt Q16539). Put plainly: p38 MAPKα enzyme inhibition (Method 2), Z-LYTE FRET. The class given is biochemical. Here is the method: The enzyme inhibitory activities of compounds disclosed herein are determined by FRET using synthetic peptides labelled with both donor and acceptor fluorophores (Z-LYTE, Invitrogen Ltd., Paisley, UK).
Sequence of p38 MAPKα (MAPK14) (Q16539 whole entry): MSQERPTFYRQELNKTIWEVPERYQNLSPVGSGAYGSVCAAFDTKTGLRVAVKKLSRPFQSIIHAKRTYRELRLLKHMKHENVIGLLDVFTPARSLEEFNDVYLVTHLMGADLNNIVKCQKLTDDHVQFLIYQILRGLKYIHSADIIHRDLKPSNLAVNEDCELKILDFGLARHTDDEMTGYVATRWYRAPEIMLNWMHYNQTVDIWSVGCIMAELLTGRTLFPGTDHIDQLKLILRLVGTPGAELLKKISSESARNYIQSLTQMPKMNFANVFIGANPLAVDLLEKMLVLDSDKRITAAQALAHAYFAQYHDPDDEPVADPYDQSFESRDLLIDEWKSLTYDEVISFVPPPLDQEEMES
The following two assay variants can be used for determination of p38 MAPKα inhibition.
The inhibitory activities of test compounds against the p38 MAPKα isoform (MAPK14: Invitrogen) are evaluated indirectly by determining the level of activation/phosphorylation of the down-stream molecule, MAPKAP-K2. The p38 MAPKα protein (80 ng/mL, 2.5 μL) is mixed with the test compound (2.5 μL of either 4 μg/mL, 0.4 μg/mL, 0.04 μg/mL or 0.004 μg/mL) for 2 hr at RT. […] The mixture is incubated for 1 hr at RT. Development reagent (protease, 5 μL) is added for 1 hr prior to detection in a fluorescence microplate reader (Varioskan® Flash, ThermoFisher Scientific).
This method follows the same steps as Method 1 above, but utilises a higher concentration of the p38 MAPKα protein (2.5 μL of 200 ng/mL protein instead of 2.5 μL of 80 ng/mL protein) for mixing with the test compound (tested at either 1 μg/mL, 0.1 μg/mL, 0.01 μg/mL or 0.001 μg/mL).
In all cases, the site-specific protease cleaves non-phosphorylated peptide only and eliminates the FRET signal. Phosphorylation levels of each reaction are calculated using the ratio of coumarin emission (donor) over fluorescein emission (acceptor), for which high ratios indicate high phosphorylation and low ratios indicate low phosphorylation levels.

Sequence of c-Src (P12931 whole entry, looked up): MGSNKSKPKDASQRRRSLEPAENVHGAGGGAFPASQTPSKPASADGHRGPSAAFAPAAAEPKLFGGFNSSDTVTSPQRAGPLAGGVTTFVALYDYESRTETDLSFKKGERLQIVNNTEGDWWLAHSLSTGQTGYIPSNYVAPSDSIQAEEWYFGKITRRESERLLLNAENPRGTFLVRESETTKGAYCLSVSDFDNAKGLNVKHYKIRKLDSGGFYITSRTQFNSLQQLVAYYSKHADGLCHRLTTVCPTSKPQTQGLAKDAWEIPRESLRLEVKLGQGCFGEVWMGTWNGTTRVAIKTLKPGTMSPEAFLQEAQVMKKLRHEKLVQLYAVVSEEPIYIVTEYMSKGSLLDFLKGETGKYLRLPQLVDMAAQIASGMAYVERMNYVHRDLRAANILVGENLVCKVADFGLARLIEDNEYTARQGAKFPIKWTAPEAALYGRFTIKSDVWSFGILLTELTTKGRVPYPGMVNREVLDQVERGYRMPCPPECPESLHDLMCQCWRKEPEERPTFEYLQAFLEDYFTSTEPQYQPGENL

The inhibition is the change of the read-out against control, counted positive when it falls. A higher inhibition goes with a strong effect. In general, IC50 refers to the concentration that inhibits the measured activity by half. As to `COc1cc(Nc2cc(Oc3ccc(NC(=O)Nc4cc(C(C)(C)C)cc(NS(C)(=O)=O)c4OC)c4ccccc34)ccn2)ccc1C(=O)NC1CCN(C)CC1` [17(j), 4-[[4-[[4-[[5-tert-butyl-3-(methanesulfonamido)-2-methoxy-phenyl]carbamoylamino]-1-naphthyl]oxy]-2-pyridyl]amino]-2-methoxy-N-(1-methyl-4-piperidyl)benzamide], at 5 µg/mL the inhibition in the test on mitosis in PBMCs was 85.4%. Also, the IC50 on c-Src came out at 16 nM; against Syk it was 39 nM; against p38 MAPKα (MAPK14), 21 nM.

Take `COc1cc(Nc2cc(Oc3ccc(NC(=O)Nc4cc(C(C)(C)C)cc(NS(C)(=O)=O)c4OC)c4ccccc34)ccn2)ccc1C(=O)NCCN1CCC(O)CC1` [17(m), 4-[[4-[[4-[[5-tert-butyl-3-(methanesulfonamido)-2-methoxy-phenyl]carbamoylamino]-1-naphthyl]oxy]-2-pyridyl]amino]-N-[2-(4-hydroxy-1-piperidyl)ethyl]-2-methoxy-benzamide]: the inhibition at 5 µg/mL in the test on mitosis in PBMCs was 80.5%. The IC50 on c-Src is 19 nM; against Syk, 192 nM; at p38 MAPKα (MAPK14), 25 nM.

The molecule `COc1cc(Nc2cc(Oc3ccc(NC(=O)Nc4cc(C(C)(C)C)cc(NS(C)(=O)=O)c4OC)c4ccccc34)ccn2)ccc1C(=O)NCCN1CCOCC1(C)C` [17(k), 4-[[4-[[4-[[5-tert-butyl-3-(methanesulfonamido)-2-methoxy-phenyl]carbamoylamino]-1-naphthyl]oxy]-2-pyridyl]amino]-N-[2-(3,3-dimethylmorpholin-4-yl)ethyl]-2-methoxy-benzamide] returned an inhibition at 5 µg/mL with mitosis in PBMCs of 24%. The IC50 came to 74 nM at c-Src, 336 nM at Syk and 156 nM against p38 MAPKα (MAPK14).

Molecule `COCCOCCOCCNC(=O)c1ccc(Nc2cc(Oc3ccc(NC(=O)Nc4cc(C(C)(C)C)cc(NS(C)(=O)=O)c4OC)c4ccccc34)ccn2)cc1OC` [Example 5, 4-((4-((4-(3-(5-(tert-Butyl)-2-methoxy-3-(methylsulfonamido)phenyl)ureido)naphthalen-1-yl)oxy)pyridin-2-yl)amino)-2-methoxy-N-(2-(2-(2-methoxyethoxy)ethoxy)ethyl)benzamide] had an inhibition at 5 µg/mL in the test on mitosis in PBMCs of 27.7%. The IC50 against c-Src came to 31 nM; against Syk it was 187 nM; against p38 MAPKα (MAPK14) it was 119 nM.

In the test with mitosis in PBMCs, `COc1cc(Nc2cc(Oc3ccc(NC(=O)Nc4cc(C(C)(C)C)cc(NS(C)(=O)=O)c4OC)c4ccccc34)ccn2)ccc1C(=O)NCCCN1CCN(C)CC1` [17(aa), 4-[[4-[[4-[[5-tert-butyl-3-(methanesulfonamido)-2-methoxy-phenyl]carbamoylamino]-1-naphthyl]oxy]-2-pyridyl]amino]-2-methoxy-N-[3-(4-methylpiperazin-1-yl)propyl]benzamide] came in with an inhibition at 5 µg/mL of 77.7%. In addition, the figures for the IC50 on c-Src, against Syk and against p38 MAPKα (MAPK14) were 24 nM, 61 nM and 20 nM, respectively.

For the molecule `COCCOCCOCC[S+]([O-])c1ccc(Nc2cc(Oc3ccc(NC(=O)Nc4cc(C(C)(C)C)cc(NS(C)(=O)=O)c4OC)c4ccccc34)ccn2)cc1OC` (stereo not drawn) [Example 11, N-(5-(tert-Butyl)-2-methoxy-3-(3-(4-((2-((3-methoxy-4-((2-(2-(2-methoxyethoxy)ethoxy)ethyl)sulfinyl)phenyl)amino)pyridin-4-yl)oxy)naphthalen-1-yl)ureido)phenyl)methanesulfonamide], 5 µg/mL produced 26.6% inhibition in the test with mitosis in PBMCs. Also, the values for the IC50 on c-Src, at Syk and against p38 MAPKα (MAPK14) were 76 nM, 318 nM and 35 nM, respectively.

In turn, `COc1cc(Nc2cc(Oc3ccc(NC(=O)Nc4cc(C(C)(C)C)cc(NS(C)(=O)=O)c4OC)c4ccccc34)ccn2)ccc1C(=O)NCCN1CCS(=O)(=O)CC1` [17(r), 4-[[4-[[4-[[5-tert-butyl-3-(methanesulfonamido)-2-methoxy-phenyl]carbamoylamino]-1-naphthyl]oxy]-2-pyridyl]amino]-N-[2-(1,1-dioxo-1,4-thiazinan-4-yl)ethyl]-2-methoxy-benzamide] displayed an inhibition at 5 µg/mL in the test with mitosis in PBMCs of 36.6%. Further, the IC50 at c-Src came to 37 nM; against Syk, 102 nM; at p38 MAPKα (MAPK14), 119 nM.

On to `COc1cc(Nc2cc(Oc3ccc(NC(=O)Nc4cc(C(C)(C)C)cc(NS(C)(=O)=O)c4OC)c4ccccc34)ccn2)ccc1C(=O)NCCN1CCOCC1` [Example 2, 4-((4-((4-(3-(5-(tert-Butyl)-2-methoxy-3-(methylsulfonamido)phenyl)ureido)naphthalen-1-yl)oxy)pyridin-2-yl)amino)-2-methoxy-N-(2-morpholinoethyl)benzamide], for which the inhibition at 5 µg/mL with mitosis in PBMCs came out at 48%. The IC50 turned out to be 20 nM against c-Src, 172 nM at Syk and 20 nM against p38 MAPKα (MAPK14).

In the test on mitosis in PBMCs, `COc1c(NC(=O)Nc2ccc(Oc3ccnc(Nc4ccc(OCCN5CCOCC5)c(C#N)c4)c3)c3ccccc23)cc(C(C)(C)C)cc1NS(C)(=O)=O` [Example 9, N-(5-(tert-Butyl)-3-(3-(4-((2-((3-cyano-4-(2-morpholinoethoxy)phenyl)amino)pyridin-4-yl)oxy)naphthalen-1-yl)ureido)-2-methoxyphenyl)methanesulfonamide] registered an inhibition at 5 µg/mL of 29.8%. Besides, the IC50 against c-Src is 316 nM; against Syk, over 1280 nM; against p38 MAPKα (MAPK14), 197 nM.

Molecule `COCCOCCOCCNC(=O)c1ccc(Nc2cc(Oc3ccc(NC(=O)Nc4cc(C(C)(C)C)cc(C(N)=O)c4OC)c4ccccc34)ccn2)cc1OC` [Example 6, 4-((4-((4-(3-(5-(tert-Butyl)-3-carbamoyl-2-methoxyphenyl)ureido)naphthalen-1-yl)oxy)pyridin-2-yl)amino)-2-methoxy-N-(2-(2-(2-methoxyethoxy)ethoxy)ethyl)benzamide] came in with an inhibition at 5 µg/mL with mitosis in PBMCs of 28.8%. Also, the IC50 on c-Src came out at 36 nM; against Syk it was 315 nM; on p38 MAPKα (MAPK14), 137 nM.

`COc1cc(Nc2cc(Oc3ccc(NC(=O)Nc4cc(C(C)(C)C)cc(C(N)=O)c4OC)c4ccccc34)ccn2)ccc1C(=O)NCCN1CCOCC1` [Example 4, 4-((4-((4-(3-(5-(tert-Butyl)-3-carbamoyl-2-methoxyphenyl)ureido)naphthalen-1-yl)oxy)pyridin-2-yl)amino)-2-methoxy-N-(2-morpholinoethyl)benzamide]: in the test with mitosis in PBMCs, the inhibition at 5 µg/mL amounted to 46.2%. Further, the results for the IC50 against c-Src, against Syk and at p38 MAPKα (MAPK14) were 37 nM, 277 nM and 121 nM, respectively.

`COc1cc(Nc2cc(Oc3ccc(NC(=O)Nc4cc(C(C)(C)C)cc(NS(C)(=O)=O)c4OC)c4ccccc34)ccn2)ccc1C(=O)NCCN1CC[S+]([O-])CC1` [Example 7, 4-((4-((4-(3-(5-(tert-Butyl)-2-methoxy-3-(methylsulfonamido)phenyl)ureido)naphthalen-1-yl)oxy)pyridin-2-yl)amino)-2-methoxy-N-(2-(1-oxidothiomorpholino)ethyl)benzamide] returned an inhibition at 5 µg/mL in the test on mitosis in PBMCs of 59.9%. For the same molecule, the results for the IC50 against c-Src, at Syk and against p38 MAPKα (MAPK14) were 21 nM, 107 nM and 59 nM, respectively.
